For series [1], the target named is T1, Klebsiella ozaenae bromoxynil-specific nitrilase, N-terminal modified variant nit-23 (pBrx23) (Klebsiella pneumoniae, UniProt P10045).
T1 construct: natural N-terminus truncated (Bal31, about 51 nt removed) and replaced by 17 pUC19-encoded residues; purified enzyme
The experiment in a line: Kinetics of purified N-terminal modified nitrilase. The class given is biochemical, Klebsiella pneumoniae sub-species ozaenae. As to conditions: purified nit-23. On the procedure:
Plasmid pBrx9 was digested with BamH1, followed by resection with Bal31 for about 5 min to remove about 51 nt. The enzyme was inactivated, the resected linear DNA sequence ligated with BamH1 linkers, digested with BamH1 and recircularized under ligating conditions. […] This fragment was inserted into pCGN 566 which had been completely digested with BamH1 and SmaI to produce plasmid pBrx23, of 3.7Kb. Plasmid pCGN 566 is a derivative of pUC13 with polylinkers from pUC18 and pUC19 and the chloramphenicol resistance gene. The fragment from pBrx15 is inserted to be in reading frame with an upstream initiation codon and where 17 amino acids encoded by the pUC19 sequence replace amino acids of the naturally occurring nitrilase.
The following provides the sequence of the N-terminal modified nitrilase (nit-23). [drawing 3] Purification of the Wild-Type and Altered Nitrilase
Nitrilase was prepared from stationary phase MM 294 E. coli cells containing the pBrx9, pBrx11 or pBrx28 plasmids. Cultures were grown under ampicillin selection until the whole cell nitrilase assay yielded an OD640 of approximately 2.0. Cultures were centrifuged at 8,000 xg for 15 min at 4° C. The cells were washed in 0.1M potassium phosphate buffer pH 7.4, repelleted, dried, and frozen at -20° C. The pellet was thawed at 4° C. and resuspended in 40 ml 50 mM potassium phosphate buffer with 1 mM dithiothreitol, 0.1 mM EDTA (KDE). […]

A further series deals with tomato leaf sections. The series is described as follows: Tomato leaf sections in bromoxynil-containing medium under photoautotrophic conditions. In kind it is cell-based, Lycopersicon esculentum cv. UC828. Here is the method: Co-cultivation of tomato (Lycopersicon esculentum cv. UC828) cotyledonary explants was carried out as described previously with tobacco and kanamycin shoots regenerated. […] Approximately 5 mm leaf sections from surface-sterilized(10% hypochlorite; water washed) leaves were suspended in bromoxynil-containing medium at varying concentrations under photoautotrophic conditions. The media was MS salts containing 2 mg/l […], 1 mg/l isopentyladenine and 100 mg/l myoinositol and bromoxynil at 10^-5 or 10^-6 M. The same photoautotrophic conditions were employed as described for tobacco. […] Transgenic tomato plants (10-20 leaf stage) were sprayed with a commercial formulation of bromoxynil (BUCTRIL) and found to be resistant at 0.5 lbs/acre.

In a further series the test system is tobacco leaf sections. The experiment in a line: Tobacco leaf sections in bromoxynil containing media under photoautotrophic conditions. In kind it is cell-based, Nicotiana tabacum cv. "Xanthi". On the procedure: The plasmids were transformed into A, tumefaciens strain LBA4404, followed by co-cultivation with tobacco (Nicotiana tabacum cv. "Xanthi") cotyledonary explants. Kanamycin-resistant shoots were regenerated into tobacoo plants in accordance with conventional techniques.
Approximately 5 mm leaf section from surface-sterilized (10% hypochloriate; water-washed) leaves were suspended in bromoxynil containing media under photoautotrophic conditions. The media employed was MS salts containing 0.93 mg/l naphthylacetic acid and 0.11 mg/l benzylaminopurine, with varying amounts of bromoxynil. The concentration of bromoxynil varied from 10^-3 to 10^-6 M at 0.1 dilutions. The photoautotrophic conditions were 5% CO2, 10% O2, 85% N2. Control tobacco leaf sections which had not been transformed were bleached (inhibited) at 10^-6 M bromoxynil. By contrast, transformed leaf sections expressing the bromoxynil-specific nitrilase from plasmids pBrx39 and pBrx40 were resistant to 10^-5 M and 10^-4 M bromoxynil, respectively.

The subject of the next series is N#Cc1cc(Br)c(O)c(Br)c1. The series is described as follows: Kinetics of purified wild-type bromoxynil-specific nitrilase. In kind it is biochemical, Klebsiella pneumoniae sub-species ozaenae. As to conditions: other: purified nit-wt, substrate not given, 30.0 °C. On the procedure: All four colonies were grown in 200 mls L-broth containing 0.05% bromoxynil. Cells were disrupted with a French press, the high speed supernatants dialyzed against buffer containing 0.05M KPO, pH7.5; 2.5 mM dithiothreitol (DTT) and the individual crude extracts assayed for bromoxynil specific nitrilase activity. […] Cells (200 ml) were grown at 30° C. to mid log phase in M9 medium (Miller (1972) Experiments in Molecular Genetics, Cold Spring Harbor Laboratory) containing 0.1% glucose and 0.04% bromoxynil. Crude extracts were prepared by cell disruption, ultracentrifugation and dialysis of the supernatant in buffer containing 0.05M KPO4 pH 7.5 and 2.5 mM DTT. Substrate concentarion was 3 mM bromoxynil in all assays. Release of NH3 was monitored according to Harper Biochem. J. (1977) 167:685-692. The ability of K. ozaenae variant to grow in L-broth containing bromoxynil may result in acquired impermeability of the organism to the compound. However, the organism cannot grow in defined media utilizing bromoxynil as sole nitrogen source.
Nitrilase was prepared from stationary phase MM 294 E. coli cells containing the pBrx9, pBrx11 or pBrx28 plasmids. Cultures were grown under ampicillin selection until the whole cell nitrilase assay yielded an OD640 of approximately 2.0. Cultures were centrifuged at 8,000 xg for 15 min at 4° C. […]

The text below walks through data of patent publication US4810648A, “Haloarylnitrile degrading gene, its use, and cells containing the gene” (Rhone Poulenc Agrochimie, priority 1987, dated 1989).

Regarding `N#Cc1cc(Br)c(O)c(Br)c1` [bromoxynil, 3,5-dibromo-4-hydroxybenzonitrile], the Km in series [1] was 110 µM. Further, the Vmax in series [1] was found to be 9 µmol/min/mg. Moreover, the minimal effective concentration in the series with tomato leaf sections (Solanum lycopersicum, control tomato leaf sections, not transformed, read-out: concentration at which leaf sections were bleached) is 1 µM; in the series with tobacco leaf sections (Nicotiana tabacum, control tobacco leaf sections, not transformed, read-out: concentration at which leaf sections were bleached (inhibited)), 1 µM. Also, the “concentration to which leaf sections were resistant” value is on record as 10^-5 M in the series with tomato leaf sections (transformed tomato expressing nitrilase gene from pBrx29), 10^-5 M with tobacco leaf sections (transformed tobacco leaf sections expressing nitrilase from pBrx39) and 10^-4 M in the series on tobacco leaf sections (transformed tobacco leaf sections expressing nitrilase from pBrx40).

For the compound “Klebsiella ozaenae bromoxynil-specific nitrilase, wild type (nit-wt, from pBrx9) (Klebsiella pneumoniae subsp. ozaenae)”, the Km in the series on N#Cc1cc(Br)c(O)c(Br)c1 amounted to 310 µM.

Broadly, the Km is the substrate concentration at which the rate is half of its maximum. The Vmax is the rate approached at saturating substrate.
